Holding throughout (assay type): cell-based
In experiment [1] the test system is TM3 mouse Leydig cell line. Briefly: cDNA microarray comparison of transcription, 20HE vs methandrostenolone, TM3 cells. The settings on record: 18 hours. How it is done: (§1) A transcriptome approach utilizing cDNA microarray was implemented to observe the unique effects of ecdysteroids. Microarray analyses was developed and implemented to discern the transcriptional differences between ecdysteroids and anabolic steroids.
(§2) A mouse Leydig cell line, TM3, (ATCC) was seeded between 5 and 20 passages at a density of 10^5 cells/cm^2 onto 10 cm tissue culture plates. The cells were grown in F12/DME media supplemented with 5% horse serum, 2.5% fetal bovine serum, 100 U/ml penicillin, and 100 μg/ml streptomycin.
(§3) Cells were grown for 48 hours in 5% CO2 at 37° C. until they approached 80% confluency. Cells were washed with serum free DMEM and treated with either 1 μM […] (20HE), or methandrostenolone (synthetic anabolic steroid). Both compounds were dissolved in 70% ethanol and added to serum free media. Cells were incubated after treatment for 18 hours before RNA extraction.
(§4) RNA was extracted and purified from C2C12 myoblasts and TM3 Leydig tumor line cells using an RNeasy kit according to the manufacturer's instructions (Qiagen). RNA concentration and purity were assessed using a spectrophotometer. All RNA samples used had 260/280 ratios greater than 1.9.
(§5) A collection of 21,900 oligonucleotides was purchased from Compugen, Inc. Microarrays were printed on poly-L-lysine-coated glass slides using an OmniGrid microarrayer (GeneMachines, San Carlos, Calif.) and quill-type printing pins (Telichem, Sunnyvale, Calif.) following standard procedures. Fluorescent probes were prepared from 5 μg of total cellular RNA using the Genisphere 3DNA dendrimer system (Genisphere, Inc., Montvale, N.J.). Two separate microarrays, one for each cell line, were run. The ecdysone treated RNA sample was labeled with Cy3 and the methandrostenelone treated RNA sample was labeled with Cy5 in a parallel reaction, mixed, and hybridized to the chips. Automated microarray hybridization and washing were performed using a Ventana Discovery System. The sequence-tagged target was hybridized for 12 hours at 58° C., and microarrays were washed twice in […] for 10 minutes at 55° C. and once in […] for 2 minutes at 42° C. Florescent dendrimer was then applied and incubated at 55° C. for 2 hours. The microarrays were then washed with […] and spin-dried, followed by scanning on an Axon GenePix 4000B. Image files were processed using Axon GenePix 4.0 software, resulting in text files containing median fluorescence intensities as well as median local backgrounds. Normalized data were imported along with spot flag information into GeneSpring where the ratios were calculated.

Experiment [2] concerns C2C12 mouse skeletal muscle cell line. Briefly: cDNA microarray comparison of transcription, 20HE vs methandrostenolone, C2C12 cells. The settings on record: 18 hours. The protocol:
as §1
(§6) A mouse skeletal muscle cell line, C2C12, (ATCC) was seeded between 4 and 20 passages at a density of 10^5 cells/cm^2 onto 10 cm tissue culture plates. The cells were grown in DMEM supplemented with 10% Fetal Bovine Serum, 10 mM HEPES, 6 mM Glutamine, 1 mM pyruvate, 100 U/ml penicillin, and 100 ug/ml streptomycin.
as §3, §4, §5

Experiment [3] has as its system mouse growth hormone. The experiment can be described thus: Real Time RT-PCR of growth hormone expression in TM3 cells. The settings on record: for effect on growth hormone expression (in words): TM3; for Growth Hormone Expression relative to Control: TM3, 1 μM; for change in growth hormone expression over time (in words): TM3, treated 20 minutes to 24 hours. How it is done:
as §2, §3
(§7) Selected microarray results were verified by comparison with mRNA levels obtained by Real Time reverse transcription PCR (qRT-PCR). Selected gene-specific primer pairs were designed for the mouse growth hormone and glyceraldehyde-3-phosphate dehydrogenase genes using the Primer Express software, as shown in Table 3. Total RNA was isolated, DNase I-treated, and first-strand cDNA was synthesized using Stratascript reverse transcriptase with random primers. The PCR reactions were carried out using 500 ng of cDNA, 150 nM of each primer, and SYBR Green master mix in 25 μL reactions. Levels of quantitative reverse transcription product were measured using SYBR Green fluorescence collected during real-time PCR on a Stratagene MXP3000 sequence detection system. A control cDNA dilution series was created for each gene to establish a standard curve. Reverse transcriptase was excluded from control samples to identify potential genomic contamination. Each reaction was subjected to melting point analysis to confirm single amplified products. The data generated from each PCR were analyzed using MXP 3000 software.
(§8) Quantitative real time PCR was used to verify the microarray results for growth hormone. RNA samples from each treatment were reverse-transcribed into cDNA and amplified using real time PCR. Values for growth hormone were normalized to values obtained for the housekeeping gene, glyceraldehyde-3-phosphate dehydrogenase, and the ratios of the two treatments were calculated. In both the C2C12 and TM3 cell lines differential expression was qualitatively confirmed.
(§9) Using the ΔΔCt method, relative expression was calculated.
To further investigate the effects of 20-HE, the TM3 leydig cell line was treated for varying intervals, from 20 minutes to 24 hours, with either 20-HE or methandrostenolone. Growth hormone expression was than analyzed using real time PCR as mentioned earlier.
In general terms: Quantitative PCR measures a nucleic acid by following its amplification.

For experiment [4], the system named is mouse growth hormone. The experiment can be described thus: Real Time RT-PCR of growth hormone expression in C2C12 cells. The settings on record: for effect on growth hormone expression (in words): C2C12; for Growth Hormone Expression relative to Control: C2C12, 1 μM, Real Time RT-PCR, normalized to GAPDH. How it is done: as §6, §3, §7, §8, §9
[5] abbreviates: Real Time RT-PCR, normalized to GAPDH.

Turning to `CC(C)(O)CC[C@@H](O)[C@](C)(O)[C@H]1CC[C@@]2(O)C3=CC(=O)[C@@H]4C[C@@H](O)[C@@H](O)C[C@]4(C)[C@H]3CC[C@]12C` [20-Hydroxyecdysone, 20-hydroxyecdysone], the “20E/D Expr: Growth hormone” value in experiment [1] (TM3, 1 μM, expression ratio 20HE to methandrostenolone, LL 14599) came to 7.006; in experiment [2] (C2C12, 1 μM, expression ratio 20HE to methandrostenolone, LL 14599), 3.163. For the same compound, the “20E/D Expr: Insulin II” value in experiment [1] (TM3, 1 μM, expression ratio 20HE to methandrostenolone, LL 16334) was 0.262. In experiment [1] (TM3, 1 μM, expression ratio 20HE to methandrostenolone, LL 18227), the “20E/D Expr: Nuclear receptor subfamily 4, group A, member 2” value amounted to 0.010. The “20E/D Expr: Chemokine (C-C motif) ligand 20” value in experiment [1] (TM3, 1 μM, expression ratio 20HE to methandrostenolone, LL 20297) is reported as 11.89. The “20E/D Expr: Signal transducer and activator of transcription 1” value in experiment [1] (TM3, 1 μM, expression ratio 20HE to methandrostenolone, LL 20846) was determined as 0.052. Moreover, the “20E/D Expr: Steroid sulfatase” value in experiment [1] (TM3, 1 μM, expression ratio 20HE to methandrostenolone, LL 20905) is 4.611. Further, the “20E/D Expr: Insulin receptor-related receptor” value in experiment [1] (TM3, 1 μM, expression ratio 20HE to methandrostenolone, LL 23920) was 0.022; in experiment [2] (C2C12, 1 μM, expression ratio 20HE to methandrostenolone, LL 23920), 0.020. In addition, in experiment [1] (TM3, 1 μM, expression ratio 20HE to methandrostenolone, LL 27047), the “20E/D Expr: Osteomodulin” value is 0.010. Moreover, the “20E/D Expr: Ndufs3” value in experiment [1] (TM3, 1 μM, expression ratio 20HE to methandrostenolone, LL 68349) was 4.741. In experiment [1] (TM3, microarray, 1 μM), the “genes down-regulated more than 2 fold as compared to methandrostenolone” value was found to be 341 genes. Moreover, the “genes up-regulated more than 2 fold as compared to methandrostenolone” value in experiment [1] (TM3, microarray, 1 μM) is 287 genes. For the same compound, the “increase of growth hormone expression more than methandrostenolone” value in experiment [1] (TM3, microarray, 1 μM) worked out at 7.0 times; in experiment [2] (C2C12, microarray, 1 μM), 3.2 times. Moreover, the “20E/D Expr: Annexin A5” value in experiment [2] (C2C12, 1 μM, expression ratio 20HE to methandrostenolone, LL 11747) was determined as 11.90. In experiment [2] (C2C12, 1 μM, expression ratio 20HE to methandrostenolone, LL 12424), the “20E/D Expr: Cholecystokinin” value was 0.010. Moreover, the “20E/D Expr: Fas death domain-associated protein” value in experiment [2] (C2C12, 1 μM, expression ratio 20HE to methandrostenolone, LL 13163) came out at 0.010. The “20E/D Expr: Fibroblast growth factor 11” value in experiment [2] (C2C12, 1 μM, expression ratio 20HE to methandrostenolone, LL 14166) worked out at 0.010. The “20E/D Expr: Histocompatibility 2, D region locus 1” value in experiment [2] (C2C12, 1 μM, expression ratio 20HE to methandrostenolone, LL 14964) is on record as 6.771. For the same compound, the “20E/D Expr: Hexokinase 2” value in experiment [2] (C2C12, 1 μM, expression ratio 20HE to methandrostenolone, LL 15277) was 0.010. Besides, in experiment [2] (C2C12, 1 μM, expression ratio 20HE to methandrostenolone, LL 17149), the “20E/D Expr: mago-nashi homolog, proliferation-associated” value is 3.708. Moreover, in experiment [2] (C2C12, microarray, 1 μM), the “genes down-regulated more than two fold as compared to methandrostenolone” value was found to be 479 genes. Moreover, the “genes up-regulated more than 2-fold as compared to methandrostenolone” value in experiment [2] (C2C12, microarray, 1 μM) is given as 278 genes. The “effect on growth hormone expression (in words)” value in the experiment with mouse growth hormone [3] and in the experiment on mouse growth hormone [4] was “increased expression of GH” each time. Moreover, the “Growth Hormone Expression relative to Control” value with mouse growth hormone [3] (setting [5]) turned out to be 7.1 ± 1.2; in the experiment on mouse growth hormone [3] (incubation time 20 m) it was 0.9; with mouse growth hormone [3] (incubation time 45 m), 3.5; in the experiment with mouse growth hormone [3] (incubation time 1 hr), 7.3; with mouse growth hormone [3] (incubation time 2 hr) it was 6.9; in the experiment on mouse growth hormone [3] (incubation time 4 hr) it was 7.2. For the same compound, the “Growth Hormone Expression relative to Control” value in the experiment with mouse growth hormone [3] (incubation time 24 hr) is recorded as 7; in the experiment with mouse growth hormone [4], 3.9 ± 0.9. The “change in growth hormone expression over time (in words)” value in the experiment with mouse growth hormone [3] is “increased growth hormone expression over time, beginning after 45 minute and remaining increased after 24 hours”.
In the case of `C[C@]12C=CC(=O)C=C1CC[C@@H]1[C@@H]2CC[C@@]2(C)[C@H]1CC[C@]2(C)O` [Methandrostenolone, methandrostenolone, reference compound], the “effect on growth hormone expression (in words)” value in the experiment on mouse growth hormone [3] and in the experiment on mouse growth hormone [4] was “little or no effect” each time. The “Growth Hormone Expression relative to Control” value is recorded as 2.3 ± 1.4 in the experiment on mouse growth hormone [3] (setting [5]); 1.2 in the experiment on mouse growth hormone [3] (incubation time 20 m); 1.9 with mouse growth hormone [3] (incubation time 45 m); 2.5 in the experiment on mouse growth hormone [3] (incubation time 1 hr); 1.7 with mouse growth hormone [3] (incubation time 2 hr); 2.1 in the experiment with mouse growth hormone [3] (incubation time 4 hr). Further, the “Growth Hormone Expression relative to Control” value in the experiment on mouse growth hormone [3] (incubation time 24 hr) is reported as 2.3; in the experiment with mouse growth hormone [4], 0.8 ± 0.5. The “change in growth hormone expression over time (in words)” value in the experiment with mouse growth hormone [3] is reported as “very little change”.
